Source: ChEMBL document CHEMBL1139769, “PASS-predicted design, synthesis and biological evaluation of cyclic nitrones as nootropics” (Bioorg Med Chem Lett, 2007)

Tests used:
[1] = Partition coefficient, log P of the compound; assay type: physicochemical; details: octanol/water
Mus musculus [2] = test: Nootropic effect in Albino mouse assessed as decrease in transfer latency at 75 mg/kg, po after 24 hrs by elevated plus maze test; assay type: functional; set-up: scale not given: the % may be the effect or the level left
Mus musculus [3] = test: Nootropic effect in Albino mouse assessed as decrease in transfer latency at 200 mg/kg, ip after 24 hrs by elevated plus maze test; assay type: functional; set-up: scale not given: the % may be the effect or the level left; details: route intraperitoneal

Compound | logP [1] | Activity (Mus musculus [2]) [%] | Activity (Mus musculus [3]) [%]
O=[N+]([O-])c1ccc(C2=[N+]([O-])C(c3ccccc3)N(C3CCCCC3)C2)cc1 (centres undefined) | 2.41 | 51.6 | 
CN(C)c1ccc(C2N(Cc3ccccc3)CC(c3ccc([N+](=O)[O-])cc3)=[N+]2[O-])cc1 (centres undefined) | 2.02 | 10.8 | 
COc1ccc(N2CC(c3ccc([N+](=O)[O-])cc3)=[N+]([O-])C2c2ccc(N(C)C)cc2)cc1 (centres undefined) | 2.32 | 40.4 | 
O=[N+]([O-])c1ccc(C2=[N+]([O-])C(c3ccccc3)N(c3ccccc3)C2)cc1 (centres undefined) | 2.45 | 36.4 | 
NC(=O)CN1CCCC1=O [PIRACETAM] |  |  | 51.3
